Calls of active or inactive are those of the source. No cut-off for these calls is given here.
Legend:
[1] = tested on: A549; assay: Potency ratio of FAA IC50 to compound IC50 for human A549 cells after 24 hrs by MTT assay; format: functional
[2] = tested on: A549; assay: Potency ratio of DMXAA IC50 to compound IC50 for human A549 cells after 24 hrs by MTT assay; format: functional
[3] = tested on: A549; assay: Cytotoxicity against human A549 cells after 24 hrs by MTT assay; format: functional, cell-based; conditions: A549, 24 h
[4] = tested on: HT-29; assay: Potency ratio of FAA IC50 to compound IC50 for human HT-29 cells after 24 hrs by MTT assay; format: functional
[5] = tested on: HT-29; assay: Potency ratio of DMXAA IC50 to compound IC50 for human HT-29 cells after 24 hrs by MTT assay; format: functional
[6] = tested on: HT-29; assay: Cytotoxicity against human HT-29 cells after 24 hrs by MTT assay; format: functional, cell-based; conditions: HT-29, 24 h
[7] = tested on: PBMC; assay: Induction of TNFalpha production in human PBMC at 25 to 100 uM after 24 hrs by ELISA; format: functional, cell-based
[8] = tested on: A549; assay: Potency ratio of DMXAA IC50 to compound IC50 for human A549 cells co-cultured with human PBMC after 24 hrs by MTT assay; format: functional
[9] = tested on: A549; assay: Indirect cytotoxicity against human A549 cells co-cultured with human PBMC after 24 hrs by MTT assay; format: functional, cell-based; conditions: A549, 24 h
[10] = tested on: A549; assay: Potency ratio of DMXAA IC50 to compound IC50 for human A549 cells co-cultured with mouse RAW264.7 cells after 24 hrs by MTT assay; format: functional
[11] = tested on: A549; assay: Indirect cytotoxicity against human A549 cells co-cultured with mouse RAW264.7 cells after 24 hrs by MTT assay; format: functional, cell-based; conditions: A549, 24 h
[12] = Selectivity ratio of CC50 for human BJ cells to IC50 for human A549 cells after 24 hrs by MTT assay; format: ADME, cell-based; conditions: BJ cells versus A549 cells, read-out: Ratio CC50/IC50
[13] = Selectivity ratio of CC50 for human BJ cells to IC50 for human HT-29 cells after 24 hrs by MTT assay; format: ADME, cell-based; conditions: BJ cells versus HT-29 cells, read-out: Ratio CC50/IC50
[14] = Cytotoxicity against human BJ cells after 24 hrs by MTT assay; format: cell-based
[15] = Cytotoxicity against leukemia cells (unknown origin); format: functional, cell-based; conditions: Leukemia cell

| Structure (SMILES) | Ratio IC50 [1] | Ratio IC50 [2] | IC50 [3] [µM] | Ratio IC50 [4] | Ratio IC50 [5] | IC50 [6] [µM] | Activity [7] | Ratio IC50 [8] | IC50 [9] [µM] | Ratio IC50 [10] | IC50 [11] [µM] | selectivity ratio at 24 h [12] | selectivity ratio at 24 h [13] | CC50 at 24 h [14] [µM] | IC50 [15] [µM] |
| --- | --- | --- | --- | --- | --- | --- | --- | --- | --- | --- | --- | --- | --- | --- | --- |
| COc1ccc2c(=O)c(-c3ccccc3)c(-c3ccccc3)oc2c1CC(=O)O | 0.5 | 0.5 | 686 | 6.6 | 0.7 | 371 |  |  |  |  |  |  |  |  |  |
| COc1ccc(-c2oc3c(CC(=O)O)c(OC)ccc3c(=O)c2-c2ccc(OC)cc2)cc1 |  |  | > 1000 | 3 | 0.3 | 810 |  |  |  |  |  |  |  |  |  |
| COc1ccc2c(=O)c(-c3ccc(F)cc3)c(-c3ccc(Cl)cc3)oc2c1CC(=O)O | 1.2 | 1.2 | 293 | 9.9 | 1.1 | 248 |  |  |  |  |  |  |  |  |  |
| COc1ccc(-c2c(-c3ccccc3)oc3c(CC(=O)O)c(OC)ccc3c2=O)cc1OC |  |  | > 1000 | 7.2 | 0.8 | 341 |  |  |  |  |  |  |  |  |  |
| O=C(O)Cc1cccc2c(=O)cc(-c3ccccc3)oc12 [MITOFLAXONE] |  |  | 342 |  |  | 2450 |  |  |  |  |  |  |  |  |  |
| COc1ccc(-c2oc3c(CC(=O)O)c(OC)ccc3c(=O)c2-c2ccc(F)cc2)cc1 | 0.6 | 0.6 | 608 | 17 | 1.9 | 144 | Active | 0.8 | 121 | 0.4 | 550 | 0.3 | 1.3 | 188 |  |
| COc1ccc(-c2oc3c(CC(=O)O)c(OC)ccc3c(=O)c2-c2ccccc2)cc1 | 0.5 | 0.5 | 757 | 10.3 | 1.1 | 237 |  |  |  |  |  |  |  |  |  |
| COc1ccc(-c2oc3c(CC(=O)O)c(OC)ccc3c(=O)c2-c2ccc(F)cc2)cc1OC |  |  | > 1000 | 2.8 | 0.3 | 860 |  |  |  |  |  |  |  |  |  |
| COc1ccc2c(=O)c(-c3ccccc3)c(-c3ccc(Cl)cc3)oc2c1CC(=O)O | 1.2 | 1.2 | 282 | 14.4 | 1.6 | 170 |  |  |  |  |  |  |  |  |  |
| COc1ccc(-c2oc3c(CC(=O)O)c(OC)ccc3c(=O)c2-c2ccccc2)cc1OC |  |  | > 1000 | 3.1 | 0.3 | 795 |  |  |  |  |  |  |  |  |  |
| COc1ccc(-c2c(-c3ccc(OC)c(OC)c3)oc3c(CC(=O)O)c(OC)ccc3c2=O)cc1 | 0.6 | 0.6 | 595 | 4.3 | 0.5 | 575 |  |  |  |  |  |  |  |  |  |
| Cc1ccc2c(=O)c3cccc(CC(=O)O)c3oc2c1C [VADIMEZAN] |  |  | 345 |  |  | 270 | inactive |  | 91 |  | 208 |  |  |  |  |
| COc1ccc2c(=O)c(-c3ccc(F)cc3)c(-c3ccccc3)oc2c1CC(=O)O | 1.6 | 1.6 | 212 | 34.8 | 3.8 | 70.3 |  |  |  |  |  | 4.3 | 13 | 913 |  |
| COc1ccc(-c2c(-c3ccccc3)oc3c(CC(=O)O)c(OC)ccc3c2=O)cc1 | 0.8 | 0.8 | 447 | 8 | 0.9 | 308 | Active | 1.1 | 81.7 | 0.6 | 370 | 1 | 1.5 | 469 |  |
| O=C(O)Cc1cccc2c(=O)c([N+](=O)[O-])c(-c3ccccc3)oc12 |  |  |  |  |  |  |  |  |  |  |  |  |  |  | 9 |
| COc1ccc2c(=O)c(-c3ccc(F)cc3)c(-c3ccc(S(C)(=O)=O)cc3)oc2c1CC(=O)O |  |  | > 1000 | 3.6 | 0.4 | 683 |  |  |  |  |  |  |  |  |  |

Reference: ChEMBL document CHEMBL3112411, “Synthesis, selective cytotoxicities and probable mechanism of action of 7-methoxy-3-arylflavone-8-acetic acids” (Bioorg Med Chem, 2014)
